Our source for the IC50 and IC80 values is patent publication US20110288154A1, “RNA Interference Mediated Inhibition of Epithelial Sodium Channel (ENaC) Gene Expression Using Short Interfering Nucleic Acid (siNA)” (MERCK & CO., INC., priority 2008, published 2011).

This experiment has as its system ENaC. The experiment is described as follows: FLIPR assay of sodium transport in recombinant HEK cells over expressing ENaC. It is filed as cell-based, human. To be noted: recombinant HEK cells expressing ENaC. As for the experimental part: Recombinant HEK293 cell line (expressing ENaC beta & gamma) SCNN1B (P618AY620L)+SCNN1G (P624stop) #24. were grown at 37 deg in the presence of CO2 and were cultured in M1 medium M1+0.5 mg/ml geneticin and 0.2 mg/ml hygromycin.
Functional Effects on ENaC via FLIPR in Cells Over Expressing ENaCa: A reverse transfection methodology was used to transfect the HEK recombinant cell line. 5 ul of siRNA (diluted in Optimem to the appropriate concentration) was mixed with 5 ul of the Gemini lipid transfection reagent diluted in Optimem in 384 well non-coated FLIPR plate. Plates were incubated at room temperature for 20 minutes to allow complex formation. Cells were harvested, spun down, diluted to 3×10^5/ml and plated out at 40 ul/well (12K/well) in 384 well plate format containing the transfection complex. The plates were incubated overnight for 20 hours. The cells were then transduced with BacMam virus expressing ENaC alpha (BacMam viruses expressing SCNN1A, GRITS 29703, titre 0.356×10^8/ml). 30 ul of virus was added (1.7%) 20K/well, MOI was approximately 1. Cells were incubated for 24 hours. On day of the FLIPR assay, media was aspirated, leaving 10 ul volume. 20 ul of dye per well was loaded (FMP2 Blue dye, R8181, MDS. For each pot, 133 ml Tyrodes buffer was diluted to make 1× stock prior to assay). The plate was incubated for 0.5 hours at room temperature and 10 ul of the compound added on-line prior to FLIPR read (FLIPR settings: protocol Na MP.fcf, with Exposure length 0.4 sec and Filter #2). Compound plate: 1 ul volume, column 1, 2 and 3 are 16, 4 and 0 uM amiloride final (1/200 dilution) (IC80, IC50 and ctrl).

Usually IC50 stands for the concentration needed to halve the response being measured. As usually defined, the IC80 is the concentration needed for an effect of 80%.

Regarding `N=C(N)NC(=O)c1nc(Cl)c(N)nc1N` [Amiloride, reference compound], under “read-out: IC50 of inhibitor in FLIPR assay”, the IC50 was 4 µM. Also, the IC80 (read-out: IC80 of inhibitor in FLIPR assay) is 16 µM.
